Tests used:
BCRP [1] = molecular target: T1, BCRP (Homo sapiens, UniProt Q9UNQ0); conditions: not told; cited from earlier work
T1 sequence (Q9UNQ0 1-655): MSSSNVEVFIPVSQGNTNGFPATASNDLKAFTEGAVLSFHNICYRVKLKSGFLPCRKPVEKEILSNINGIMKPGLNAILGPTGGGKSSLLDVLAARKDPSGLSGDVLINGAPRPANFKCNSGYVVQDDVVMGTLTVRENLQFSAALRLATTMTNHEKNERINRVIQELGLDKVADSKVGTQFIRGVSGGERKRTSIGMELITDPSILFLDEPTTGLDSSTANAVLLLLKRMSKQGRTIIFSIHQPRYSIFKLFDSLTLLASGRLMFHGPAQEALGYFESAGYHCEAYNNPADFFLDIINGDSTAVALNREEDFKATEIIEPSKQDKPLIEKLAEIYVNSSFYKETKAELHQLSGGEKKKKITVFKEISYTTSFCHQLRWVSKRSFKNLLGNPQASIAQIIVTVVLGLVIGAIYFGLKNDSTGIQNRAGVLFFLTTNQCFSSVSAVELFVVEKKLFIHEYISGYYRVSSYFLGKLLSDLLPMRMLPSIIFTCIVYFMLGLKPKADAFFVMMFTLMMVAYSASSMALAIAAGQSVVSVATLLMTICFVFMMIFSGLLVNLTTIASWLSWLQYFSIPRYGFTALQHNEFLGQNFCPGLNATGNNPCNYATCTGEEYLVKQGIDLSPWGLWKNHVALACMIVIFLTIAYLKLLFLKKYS

brain BCRP = molecular target: T2, brain BCRP (Rattus norvegicus, UniProt Q80W57); conditions: normal rats
T2 sequence (Q80W57 1-657): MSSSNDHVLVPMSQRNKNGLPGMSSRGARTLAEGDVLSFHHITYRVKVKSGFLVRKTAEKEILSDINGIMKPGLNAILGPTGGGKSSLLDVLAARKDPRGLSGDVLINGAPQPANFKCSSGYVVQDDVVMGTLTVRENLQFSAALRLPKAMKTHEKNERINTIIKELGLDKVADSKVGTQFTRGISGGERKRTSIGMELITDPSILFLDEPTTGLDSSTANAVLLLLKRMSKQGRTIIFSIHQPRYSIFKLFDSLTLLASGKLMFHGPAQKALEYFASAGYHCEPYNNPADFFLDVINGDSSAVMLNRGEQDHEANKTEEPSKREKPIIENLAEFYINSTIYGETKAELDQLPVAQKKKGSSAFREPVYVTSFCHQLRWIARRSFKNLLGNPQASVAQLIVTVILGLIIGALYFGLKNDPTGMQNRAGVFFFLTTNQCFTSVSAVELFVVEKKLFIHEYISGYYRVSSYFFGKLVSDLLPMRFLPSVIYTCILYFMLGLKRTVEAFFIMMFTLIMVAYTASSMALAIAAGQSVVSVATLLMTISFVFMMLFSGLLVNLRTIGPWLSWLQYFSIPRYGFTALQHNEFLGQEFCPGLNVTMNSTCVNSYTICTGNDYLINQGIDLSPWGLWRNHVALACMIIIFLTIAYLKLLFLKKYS

BCRP [2] = molecular target: T1, BCRP; conditions: AZT 1 μM, 120 min
[3] = cited from earlier work
BCRP [4] = molecular target: BCRP (Homo sapiens, UniProt Q9UNQ0); conditions: HCMEC/D3 cells, siRNA for human ABCG2 vs CON
SO and BDL rats = test: Y-maze test during AZT treatment; type: in vivo, rat
MDCKII-WT cells = test: Uptake of AZT in MDCKII-WT cells; type: in vitro ADME, canine; conditions: wild-type MDCKII cells, AZT 1 μM, 120 min

Q: Which “efflux by BCRP” value (BCRP [1]) does the source give for `CC(C)(C)NC(=O)[C@@H]1C[C@@H]2CCCC[C@@H]2CN1C[C@@H](O)[C@H](Cc1ccccc1)NC(=O)[C@H](CC(N)=O)NC(=O)c1ccc2ccccc2n1` [saquinavir] here?
A: Its value is “BCRP also mediates the efflux”.

Q: With `CO[C@@H]1[C@@H](OC(N)=O)[C@@H](O)[C@H](Oc2ccc3c(O)c(NC(=O)c4ccc(O)c(CC=C(C)C)c4)c(=O)oc3c2C)OC1(C)C` [novobiocin] as the molecule, how does the “increase in Kin of AZT with novobiocin” value (brain BCRP; cortex, AZT 25 μM + novobiocin 200 μM, 2 min perfusion) read?
A: The value was “not significant”.

Q: With `Cc1cn([C@H]2C[C@H](N=[N+]=[N-])[C@@H](CO)O2)c(=O)[nH]c1=O` [AZT, Zidovudine] as the molecule, how does the “uptake of AZT in MDCKII-BCRP cells, % of that in MDCKII-WT cells” value (BCRP [2]) read?
A: The value was “approximately 50.0%”.

Q: What about the plasma protein binding [3] of the same molecule?
A: Its plasma protein binding is 10%.

Q: And the “uptake of AZT after BCRP siRNA knockdown” value (BCRP [4])?
A: Its value is “significantly increased”.

Q: And the “Y-maze percentage of alternation of arm entrance” value (SO and BDL rats; BDL rats treated with AZT 100 mg/kg every day i.v. compared with SO rats)?
A: Its value is “significantly decreased”.

Q: What about the “Y-maze total number of entries, effect of AZT treatment” value (SO and BDL rats; BDL rats, AZT 100 mg/kg every day i.v., day 5 of treatment) of the same molecule?
A: The value was “further enhanced by AZT treatment, but the difference was not significant”.

Q: And the “impairment of cognitive function by AZT” value (SO and BDL rats; SO rats, AZT 100 mg/kg every day i.v., Y-maze and shuttle box)?
A: The value was “did not occur”.

Q: What does the source list for Ko143?
A: effect of coadministration of Ko143 on influx of AZT into the hippocampus (brain BCRP): markedly increased; effect of incubation with Ko143 on uptake of AZT (MDCKII-WT cells): did not affect

Source: publication PMC7470810 (Acta Pharmacologica Sinica, 2019)
